Results published in patent EP0685467A1, “NOVEL PYRIMIDINE DERIVATIVE AND MEDICINAL COMPOSITION” (NKK CORPORATION, priority 1993, dated 1995).

Assays:
ICR male mice = assay: Toxicity Example: intraperitoneal administration to mice; assay type: in vivo; settings: intraperitoneally, 500 mg/kg, 4- to 5-week-old ICR male mice
Protocol: The compounds of Examples 3, 19, 20, or 23 were intraperitoneally administered to 4- to 5-week-old ICR male mice in an amount of 500 mg/kg.

rat aorta = assay: Inhibitory activity of vasoconstriction: angiotensin II induced constriction of rat aorta rings (Magnus apparatus); assay type: cell-based; settings: constriction induced by 3 x 10⁻⁸ angiotensin II
Protocol: The applicability of the compound of the present invention was confirmed by the function to inhibit constriction of rat aorta induced by angiotensin II.
Stetharteries of Wistar male rats having body weights of 150 to 250 g (Japan Charles River Inc.) were excised. After the attached connective tissue was removed, the cavities of the veins were rubbed by yarn to remove the endothelial cells and prepare ring samples. The samples were suspended in a 5ml organ bath which was filled with Krebs-Henseleit solution (unit mM; NaCl = 118, KCl = 4.7, CaCl₂ = 2.55, MgSO₄ = 1.18, KH₂PO₄ = 1.18, NaHCO₃ = 24.88, glucose = 11.1) and held at 37°C and bubbled with 95% O₂-5% CO₂. After an initial tension of 1.5 g was applied and preincubation was carried out for 60 minutes, the compounds to be tested (3 x 10⁻⁸ or 1 x 10⁻⁸) were administered. After 15 minutes, 3 x 10⁻⁸ angiotensin II was accumulatively added and the reaction of constriction was measured. The rate of inhibition was evaluated by comparing the reaction of constriction, which had been previously measured, in the case of administration of 3 x 10⁻⁸ angiotensin II in the absence of the compounds to be tested.
The constriction of the samples was ionotropicaly measured using an isometric transducer (UL-10GR: Minebea) and amplifier (6M92: NEC SANEI) and recorded by a recticorder (RECTI-HORIZ-8K: NEC SANEI).

ICR male and female mice = assay: Toxicity Example: oral administration to mice; assay type: in vivo; settings: orally, 1000 mg/kg, 6-week-old ICR male and female mice
Protocol: The compounds of Examples 15, 19, or 47 were orally administered to 6-week-old ICR male and female mice in an amount of 1000 mg/kg.

Compound | deaths (ICR male mice) | Rate of inhibition (%) (rat aorta; compound 1 x 10⁻⁸ M) | Rate of inhibition (%) (rat aorta; compound 3 x 10⁻⁸ M) | deaths (ICR male and female mice)
CCCc1nc(C)c(Cc2cccc(COC)c2)c(=O)n1Cc1ccc(-c2ccccc2-c2nnn[nH]2)cc1 [Example 20, 5-(3-methoxymethylbenzyl)-6-methyl-2-propyl-3-[2'-(1H-tetrazol-5-yl)biphenyl-4-yl]methylpyrimidin-4-one] | No deaths were observed | 100% | 100% | 
CCc1nc(C)c(Cc2cccc(CO)c2)c(OCc2ccc(-c3ccccc3-c3nnn[nH]3)cc2)n1 [Example 15, 2-ethyl-5-(3-hydroxymethylbenzyl)-6-methyl-4-[2'-(1H-tetrazol-5-yl)biphenyl-4-yl]methoxypyrimidine] |  |  |  | No deaths were observed
CCCc1nc(C)c(Cc2ccc(CO)cc2)c(=O)n1Cc1ccc(-c2ccccc2-c2nnn[nH]2)cc1 [Example 3, 5-(4-hydroxymethylbenzyl)-6-methyl-2-propyl-3-[2'-(1H-tetrazol-5-yl)biphenyl-4-yl]methylpyrimidin-4-one] | No deaths were observed | 78% | 98% | 
CCCCc1nc(C)c(Cc2cccc(CO)c2)c(=O)n1Cc1ccc(-c2ccccc2-c2nnn[nH]2)cc1 [Example 23, 2-butyl-5-(3-hydroxymethylbenzyl)-6-methyl-3-[2'-(1H-tetrazol-5-yl)biphenyl-4-yl]methylpyrimidin-4-one] | No deaths were observed | 95% | 100% | 
CCCc1nc(C)c(Cc2cccc(CO)c2)c(=O)n1Cc1ccc(-c2ccccc2-c2nnn[nH]2)cc1 [Example 19, 5-(3-hydroxymethylbenzyl)-6-methyl-2-propyl-3-[2'-(1H-tetrazol-5-yl)biphenyl-4-yl]methylpyrimidin-4-one] | No deaths were observed | 100% | 100% | No deaths were observed
CCCCc1nc(C)c(Cc2ccccc2)c(=O)n1Cc1ccc(-c2ccccc2-c2nnn[nH]2)cc1 [Comparative compound B, 5-benzyl-2-butyl-6-methyl-3-[2'-(1H-tetrazol-5-yl)biphenyl-4-yl]methylpyrimidin-4-one, reference compound] |  | 5% | 32% | 
CCc1nc(C)nc(OCc2ccc(-c3ccccc3-c3nnn[nH]3)cc2)c1Cc1cccc(CO)c1 [Example 47, 6-ethyl-5-(3-hydroxymethylbenzyl)-2-methyl-4-[2'-(1H-tetrazol-5-yl)biphenyl-4-yl]methoxypyrimidine] |  |  |  | No deaths were observed
CCCCc1nc(C)cc(=O)n1Cc1ccc(-c2ccccc2-c2nnn[nH]2)cc1 [Comparative compound A, 2-butyl-6-methyl-3-[2'-(1H-tetrazol-5-yl)biphenyl-4-yl]methylpyrimidin-4-one, reference compound] |  | 8% | 37% | 
CCCc1nc(C)c(Cc2ccc(COC)cc2)c(=O)n1Cc1ccc(-c2ccccc2-c2nnn[nH]2)cc1 [Example 4, 5-(4-methoxymethylbenzyl)-6-methyl-2-propyl-3-[2'-(1H-tetrazol-5-yl)biphenyl-4-yl]methylpyrimidin-4-one] |  | 36% | 94% | 
